Results on 16 molecules are retold here after US10344039B2, “Macrocyclic spirocarbamate derivatives as factor XIa inhibitors, pharmaceutically acceptable compositions and their use” (MERCK SHARP & DOHME CORP., priority 2015, dated 2019).

Each structure is given as a SMILES string.

The target of assay [1] is T1, purified Human plasma kallikrein (Homo sapiens, UniProt P03952).
T1 construct: yields a heavy chain (371 amino acids) and a light chain (248 amino acids); purchased Enzyme Research Laboratories
As to the kind of experiment: Kallikrein Assay. The class given is biochemical. The following applies: purified Human plasma kallikrein 0.5 nM; substrate Acetyl-K-P-R-AFC; 50 mM HEPES pH 7.4; Ki from IC50 by Cheng Prusoff equation; read-out: Hu P. Kallikrein. The method, then: The effectiveness of a compound of the present invention as an inhibitor of Kallikrein can be determined using a relevant purified serine protease, and an appropriate synthetic substrate. The rate of hydrolysis of the chromogenic or fluorogenic substrate by the relevant serine protease was measured both in the absence and presence of compounds of the present invention. Assays were conducted at room temperature or at 37° C. […] A decrease in the rate of fluorescence change in the presence of inhibitor is indicative of enzyme inhibition. Such methods are known to one skilled in the art. The results of this assay are expressed as the inhibitory constant, Ki. Kallikrein determinations were made in 50 mM HEPES buffer at pH 7.4 containing 150 mM NaCl, 5 mM CaCl2, and 0.1% PEG 8000 (polyethylene glycol; Fisher Scientific). Determinations were made using purified Human plasma kallikrein at a final concentration of 0.5 nM (Enzyme Research Laboratories) and the synthetic substrate, Acetyl-K—P-R-AFC (Sigma # C6608) at a concentration of […]. Activity assays were performed by diluting a stock solution of substrate at least tenfold to a final concentration ≤0.2 Km into a solution containing enzyme or enzyme equilibrated with inhibitor. Times required to achieve equilibration between enzyme and inhibitor were determined in control experiments. The reactions were performed under linear progress curve conditions and fluorescence increase measured at 405 Ex/510 Em nm. Values were converted to percent inhibition of the control reaction (after subtracting 100% Inhibition value). IC50 was determined by inflection point from a four parameter logistic curve fit. Ki was calculated using the Cheng Prusoff equation, Ki=IC50/(1+([S]/Km)). The activities shown by this assay indicate that the compounds of the invention may be therapeutically useful for treating or preventing various cardiovascular and/or cerebrovascular thromboembolic conditions in patients suffering from unstable angina, acute coronary syndrome, refractory angina, myocardial infarction, transient ischemic attacks, atrial fibrillation, stroke such as thrombotic stroke or embolic stroke, venous thrombosis, coronary and cerebral arterial thrombosis, cerebral and pulmonary embolism, atherosclerosis, deep vein thrombosis, disseminated intravascular coagulation, and reocclusion or restenosis of recanalized vessels.

The target of assay [2] is T2, purified human Factor XIa (Homo sapiens, UniProt P03951).
T2 construct: purified human Factor XIa; purchased Sekisui Diagnostics
As to the kind of experiment: Factor XIa Assay. The format is biochemical. The following applies: purified human Factor XIa 40 pM; substrate Z-Gly-Pro-Arg-AFC 100 μM; 50 mM HEPES pH 7.4; read-out: Hu FXIa Ki. On the procedure:
The effectiveness of a compound of the present invention as an inhibitor of Coagulation Factor XIa can be determined using a relevant purified serine protease, and an appropriate synthetic substrate. The rate of hydrolysis of the chromogenic or fluorogenic substrate by the relevant serine protease was measured both in the absence and presence of compounds of the present invention. Assays were conducted at room temperature or at 37° C. […] A decrease in the rate of fluorescence change in the presence of inhibitor is indicative of enzyme inhibition. Such methods are known to one skilled in the art. The results of this assay are expressed as the inhibitory constant, Ki.
Factor XIa determinations were made in 50 mM HEPES buffer at pH 7.4 containing 150 mM NaCl, 5 mM CaCl2, and 0.1% PEG 8000 (polyethylene glycol; JT Baker or Fisher Scientific). Determinations were made using purified human Factor XIa at a final concentration of 40 pM (Sekisui Diagnostics) and he synthetic substrate, Z-Gly-Pro-Arg-AFC, TFA salt (Sigma #C0980) at a concentration of 100 μM.
Activity assays were performed by diluting a stock solution of substrate at least tenfold to a final concentration ≤0.1 Km into a solution containing enzyme or enzyme equilibrated with inhibitor. Times required to achieve equilibration between enzyme and inhibitor were determined in control experiments. Initial velocities of product formation in the absence (Vo) or presence of inhibitor (Vi) were measured. Assuming competitive inhibition, and that unity is negligible compared Km/[S], [I]/e, and [I]/e (where [S], [I], and e respectively represent the total concentrations, of substrate, inhibitor and enzyme), the equilibrium constant (Ki) for dissociation of the inhibitor from the enzyme can be obtained from the dependence of Vo/Vi on [I] shown in the following equation. Vo/Vi=1+[I]/Ki
The activities shown by this assay indicate that the compounds of the invention may be therapeutically useful for treating or preventing various cardiovascular and/or cerebrovascular thromboembolic conditions in patients suffering from unstable angina, acute coronary syndrome, refractory angina, myocardial infarction, transient ischemic attacks, atrial fibrillation, stroke such as thrombotic stroke or embolic stroke, venous thrombosis, coronary and cerebral arterial thrombosis, cerebral and pulmonary embolism, atherosclerosis, deep vein thrombosis, disseminated intravascular coagulation, and reocclusion or restenosis of recanalized vessels. The Ki values measured for each of the example compounds of the invention using this assay are reported in the tables above (as “Hu FXIa Ki (nM)”).

T1 sequence (P03952 391-638 limits assumed): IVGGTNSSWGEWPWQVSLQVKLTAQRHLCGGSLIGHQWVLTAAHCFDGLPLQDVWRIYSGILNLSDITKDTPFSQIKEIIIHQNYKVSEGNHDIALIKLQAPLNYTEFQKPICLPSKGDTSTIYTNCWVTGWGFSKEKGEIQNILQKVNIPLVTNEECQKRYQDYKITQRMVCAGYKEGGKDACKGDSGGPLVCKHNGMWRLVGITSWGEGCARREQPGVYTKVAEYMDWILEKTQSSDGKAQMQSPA
T1 sequence (P03952 20-390 partner limits assumed): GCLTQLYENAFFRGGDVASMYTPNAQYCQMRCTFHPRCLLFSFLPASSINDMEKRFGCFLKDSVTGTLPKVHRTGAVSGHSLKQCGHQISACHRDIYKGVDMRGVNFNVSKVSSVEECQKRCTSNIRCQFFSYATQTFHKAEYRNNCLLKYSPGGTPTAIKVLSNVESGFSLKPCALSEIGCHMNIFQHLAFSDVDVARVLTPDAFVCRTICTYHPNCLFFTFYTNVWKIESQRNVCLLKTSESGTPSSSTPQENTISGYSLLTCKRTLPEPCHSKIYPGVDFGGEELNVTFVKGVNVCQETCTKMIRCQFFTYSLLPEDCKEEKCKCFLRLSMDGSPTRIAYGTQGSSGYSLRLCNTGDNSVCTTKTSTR
T2 sequence (P03951 388-625 limits assumed): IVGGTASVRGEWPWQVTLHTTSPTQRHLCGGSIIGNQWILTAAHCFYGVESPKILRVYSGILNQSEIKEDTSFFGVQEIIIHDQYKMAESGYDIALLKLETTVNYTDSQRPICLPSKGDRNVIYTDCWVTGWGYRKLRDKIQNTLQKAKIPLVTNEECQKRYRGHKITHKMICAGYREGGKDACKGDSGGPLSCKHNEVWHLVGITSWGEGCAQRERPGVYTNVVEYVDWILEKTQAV
T2 sequence (P03951 19-387 partner limits assumed): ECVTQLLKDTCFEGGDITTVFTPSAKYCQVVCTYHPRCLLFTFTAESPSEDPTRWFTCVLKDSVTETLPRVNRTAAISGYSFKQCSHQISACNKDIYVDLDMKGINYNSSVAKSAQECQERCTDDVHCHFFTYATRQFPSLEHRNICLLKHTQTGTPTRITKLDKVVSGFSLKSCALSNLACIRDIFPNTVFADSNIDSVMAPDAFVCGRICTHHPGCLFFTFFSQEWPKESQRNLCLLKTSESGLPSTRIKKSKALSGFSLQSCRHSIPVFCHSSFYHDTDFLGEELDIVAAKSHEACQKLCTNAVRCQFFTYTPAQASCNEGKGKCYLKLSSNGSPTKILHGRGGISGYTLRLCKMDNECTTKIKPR

As to `COC(=O)Nc1ccc2c(c1)NC(=O)CCCCC(C(=O)N1CC[C@@]3(C1)OC(=O)Nc1ccc(Cl)c(F)c13)c1nc-2c[nH]1` (mixture of isomers) [Example 4, methyl ((Z)-9-((R)-6-chloro-5-fluoro-2-oxo-1,2-dihydrospiro[benzo[d][1,3]oxazine-4,3′-pyrrolidine]-1′-carbonyl)-4-oxo-1^1H-3-aza-1(4,2)-imidazola-2(1,2)-benzenacyclononaphane-2^4-yl)carbamate], the Ki amounted to 1.24 nM in assay [1] and 0.86 nM in assay [2].

With `COC(=O)Nc1ccc2c(c1)NC(=O)CCCCC(C(=O)N1CCC[C@@]3(C1)OC(=O)Nc1ccc(Cl)c(F)c13)c1nc-2c(Cl)[nH]1` (mixture of isomers) [Example 8, methyl ((Z)-1^5-chloro-9-((R)-6-chloro-5-fluoro-2-oxo-1,2-dihydrospiro[benzo[d][1,3]oxazine-4,3′-piperidine]-1′-carbonyl)-4-oxo-1^1H-3-aza-1(4,2)-imidazola-2(1,2)-benzenacyclononaphane-2^4-yl)carbamate], the results for the Ki in assay [1] and in assay [2] were 0.56 nM and 0.25 nM, respectively.

Turning to `COC(=O)Nc1ccc2c(c1)NC(=O)CCCCC(C(=O)N1CC[C@@]3(C1)OC(=O)Nc1ccc(Cl)c(F)c13)c1nc-2c(Cl)[nH]1` (mixture of isomers) [Example 9, methyl ((Z)-1^5-chloro-9-((R)-6-chloro-5-fluoro-2-oxo-1,2-dihydrospiro[benzo[d][1,3]oxazine-4,3′-pyrrolidine]-1′-carbonyl)-4-oxo-1^1H-3-aza-1(4,2)-imidazola-2(1,2)-benzenacyclononaphane-2^4-yl)carbamate], the Ki in assay [1] was determined as 0.57 nM; in assay [2], 0.34 nM.

For the molecule `COC(=O)Nc1ccc2c(c1)NC(=O)[C@H](C)CCCC(C(=O)N1CC[C@@]3(C1)OC(=O)Nc1ccc(Cl)c(F)c13)c1nc-2c(Cl)[nH]1` (mixture of isomers) [Example 11], the Ki amounted to 1.32 nM in assay [1] and 0.74 nM in assay [2].

With `COC(=O)Nc1ccc2c(c1)NC(=O)CCCCC(C(=O)N1CCC[C@@]3(C1)OC(=O)Nc1ccc(Cl)c(F)c13)c1nc-2c(C)[nH]1` (mixture of isomers) [Example 12, methyl ((Z)-9-((R)-6-chloro-5-fluoro-2-oxo-1,2-dihydrospiro[benzo[d][1,3]oxazine-4,3′-piperidine]-1′-carbonyl)-1^5-methyl-4-oxo-1^1H-3-aza-1(4,2)-imidazola-2(1,2)-benzenacyclononaphane-2^4-yl)carbamate], the Ki was 1.28 nM in assay [1] and 2.7 nM in assay [2].

As for `O=C1CCCCC(C(=O)N2CC[C@@]3(C2)OC(=O)Nc2ccc(Cl)c(F)c23)c2cc(ccn2)-c2cc3ccc(=O)[nH]c3cc2N1` (mixture of isomers) [Example 26, 3-((R)-6-chloro-5-fluoro-2-oxo-1,2-dihydrospiro[benzo[d][1,3]oxazine-4,3′-pyrrolidine]-1′-carbonyl)-1^1,1^2-dihydro-9-aza-1(6,7)-quinolina-2(4,2)-pyridinacyclononaphane-1^2,8-dione], the values for the Ki in assay [1] and in assay [2] were 1.22 nM and 3.93 nM, respectively.

For `O=C1CCCCC(C(=O)N2CCC[C@@]3(C2)OC(=O)Nc2ccc(Cl)c(F)c23)c2cc(ccn2)-c2cc3ccc(=O)[nH]c3cc2N1` (mixture of isomers) [Example 27, 3-((R)-6-chloro-5-fluoro-2-oxo-1,2-dihydrospiro[benzo[d][1,3]oxazine-4,3′-piperidine]-1′-carbonyl)-1^1,1^2-dihydro-9-aza-1(6,7)-quinolina-2(4,2)-pyridinacyclononaphane-1^2,8-dione], the Ki came to 0.6 nM in assay [1] and 13 nM in assay [2].

Turning to `CCOC(=O)C1CCCCC(C(=O)N2CCC[C@@]3(C2)OC(=O)Nc2ccc(Cl)c(F)c23)c2nc(c[nH]2)-c2ccc(NC(=O)OC)cc2N1` (mixture of isomers) [Example 32, ethyl (Z)-9-((R)-6-chloro-5-fluoro-2-oxo-1,2-dihydrospiro[benzo[d][1,3]oxazine-4,3′-piperidine]-1′-carbonyl)-2^4-((methoxycarbonyl)amino)-1^1H-3-aza-1(4,2)-imidazola-2(1,2)-benzenacyclononaphane-4-carboxylate], the Ki in assay [1] was 15.5 nM; in assay [2], 4.94 nM.

For the molecule `COC(=O)Nc1ccc2c(c1)NC(=O)CCCC[C@@H](C(=O)N1CC[C@@]3(C1)OC(=O)Nc1ccc(Cl)cc13)c1nc-2c[nH]1` (single isomer, unassigned) [Example 1a], the figures for the Ki in assay [1] and in assay [2] were 1.99 nM and 2.37 nM, respectively.

For `COC(=O)Nc1ccc2c(c1)NC(=O)CCCC[C@@H](C(=O)N1CC[C@@]3(C1)OC(=O)Nc1ccc(Cl)cc13)c1nc-2c(Cl)[nH]1` (single isomer, unassigned) [Example 6a], the values for the Ki in assay [1] and in assay [2] were 0.69 nM and 0.37 nM, respectively.

In the case of `COC(=O)Nc1ccc2c(c1)NC(=O)CCCC[C@H](C(=O)N1CC[C@@]3(C1)OC(=O)Nc1ccc(Cl)cc13)c1nc-2c(Cl)[nH]1` (single isomer, unassigned) [Example 6b], the Ki in assay [1] is 32 nM; in assay [2], 16 nM.

With `COC(=O)Nc1ccc2c(c1)NC(=O)CCCC[C@@H](C(=O)N1CCC[C@@]3(C1)OC(=O)Nc1ccc(Cl)c(F)c13)c1nc-2c(C)[nH]1` (single isomer, unassigned) [Example 12b], the results for the Ki in assay [1] and in assay [2] were 1.29 nM and 0.93 nM, respectively.

`COC(=O)Nc1ccc2c(c1)NC(=O)C(C)CCCC(C(=O)N1CCC[C@@]3(C1)OC(=O)Nc1ccc(Cl)cc13)c1cc-2ccn1` (single isomer, unassigned) [Example 15a]: the Ki in assay [1] stood at 1.7 nM; in assay [2] it was 31.1 nM.

In the case of `COC(=O)Nc1ccc2c(c1)NC(=O)CCCC[C@@H](C(=O)N1CC[C@@]3(C1)OC(=O)Nc1ccc(Cl)c(F)c13)c1cccc-2n1` (single isomer, unassigned) [Example 23b], the Ki in assay [1] is 8.5 nM; in assay [2], 44.2 nM.

As to `CCOC(=O)C1CCCCC(C(=O)N2CCC[C@@]3(C2)OC(=O)Nc2ccc(Cl)c(F)c23)c2nc(c[nH]2)-c2ccc(NC(=O)OC)cc2N1` (single isomer, unassigned) [Example 32b], the values for the Ki in assay [1] and in assay [2] were 1.42 nM and 0.62 nM, respectively.

For the molecule `COC(=O)Nc1ccc2c(c1)NC(=O)CCCC[C@@H](C(=O)N1CCC[C@@]3(C1)OC(=O)Nc1ccc(Cl)cc13)c1nc-2c[nH]1` [Example 3a, methyl ((R,Z)-9-((R)-6-chloro-2-oxo-1,2-dihydrospiro[benzo[d][1,3]oxazine-4,3′-piperidine]-1′-carbonyl)-4-oxo-1^1H-3-aza-1(4,2)-imidazola-2(1,2)-benzenacyclononaphane-2^4-yl)carbamate], the Ki in assay [1] came out at 0.82 nM; in assay [2], 2.74 nM.
